Data taken from patent US20110020801A1, “Carboxylesterase-1 Polymorphisms and Methods of Use Therefor” (priority 2007, published 2011).

What was measured:
[1] = Pharmacokinetic study of orally administered racemic MPH in normal volunteers; format: in vivo, human
Experimental: Analysis of Pharmacokinetic, Hemodynamic, and Statistical Data. Standard pharmacokinetic analyses were applied to the MPH data using WinNonLin software (Pharsight, Mountainview, Calif.) and are described in a previous publication.^10 The AUC, Cmax, and t1/2 were analyzed using the Extreme Studentized Deviate (ESD) single-outlier procedure^12 to determine whether the parameter measurements for the slow metabolizer constituted true statistical outliers. For each parameter, the ESD procedure confirmed the measurement as an outlier at the p<0.01 level. Because this procedure is known to be conservative, the data from the aberrant metabolizer were reassessed using a similar procedure with respect to the normal participants only.

[2] = Spontaneous hydrolysis in reaction buffer; format: physicochemical; settings: PBS containing 10 mM HEPES, pH 7.4
Experimental: (§1) Thus, following the enzymatic assay, the values determined for spontaneous PNP and RA hydrolysis were subtracted from the total PNP and RA production. […] All collected data were fit to the Michaelis-Menten equation, and kinetic parameters were calculated using nonlinear regression analysis with Graphpad Prism software (Graphpad Software Inc., San Diego, Calif.)

p.Gly143Glu CES1 [3] = molecular target: T1, p.Gly143Glu CES1 (Homo sapiens, UniProt P23141, G143E); assay: MPH hydrolysis to ritalinic acid by S9 of cells expressing p.Gly143Glu CES1 (HPLC); format: biochemical; settings: S9 500 μg/ml, even at very high S9 concentration (2 mg/ml); 37° C., 2 h
T1 construct: inserting a stop codon after CES1A1 gene to yield the constructs expressing CES1 without V5-His tag; expressed in transfected cells
T1 sequence (P23141 18-567 G143E/Y526T): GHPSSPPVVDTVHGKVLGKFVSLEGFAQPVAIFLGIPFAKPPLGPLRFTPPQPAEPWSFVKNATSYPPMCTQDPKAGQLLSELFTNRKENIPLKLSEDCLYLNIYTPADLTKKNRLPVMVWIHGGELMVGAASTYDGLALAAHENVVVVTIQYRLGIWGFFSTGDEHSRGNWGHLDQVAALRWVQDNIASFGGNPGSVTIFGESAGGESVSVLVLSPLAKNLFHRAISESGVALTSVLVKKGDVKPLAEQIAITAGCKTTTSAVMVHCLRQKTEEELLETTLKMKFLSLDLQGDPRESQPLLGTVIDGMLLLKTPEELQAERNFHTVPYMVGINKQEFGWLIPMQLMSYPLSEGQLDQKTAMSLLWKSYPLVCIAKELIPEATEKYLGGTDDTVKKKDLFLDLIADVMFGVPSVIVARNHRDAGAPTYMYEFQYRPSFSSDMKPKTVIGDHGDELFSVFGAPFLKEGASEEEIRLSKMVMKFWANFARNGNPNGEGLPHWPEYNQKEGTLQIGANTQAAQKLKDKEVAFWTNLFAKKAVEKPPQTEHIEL
Description: (§2) The desired plasmid was designed such that the recombinant CES1 would be expressed in mammalian cells with a V5-His tag to facilitate detection and purification. Additionally, another plasmid was generated by inserting a stop codon after CES1A1 gene to yield the constructs expressing CES1 without V5-His tag. […] Thus, only untagged CES1 and its associated mutants were used in the enzymatic hydrolysis study. Two constructs of CES1 mutations, p.Gly143Glu and p.Asp260fs, were generated using a site-directed mutagenesis assay. All constructs were subjected to DNA sequencing analysis to confirm that the desired plasmids were obtained. The identified CES1A1 plasmids (WT, p.Gly143Glu, and p.Asp260fs) were co-transfected with pOG44 plasmid at a ratio of 1:10 into Flp-In™-293 cells using […] (Invitrogen, Carlsbad, Calif.). Additionally, the self-ligated pcDNA5/FRT/V5-His-TOPO® vector was included as a vector control. Twenty-four hours after transfection, cells were washed with PBS and fresh complete medium (Dulbecco's modified Eagle's medium containing 10% fetal bovine serum) was added. […]
(§3) After attaining approximately 95% confluence, cells were rinsed and harvested in PBS containing 10 mM HEPES (pH 7.4). […] The protein concentration was determined using a Pierce BCA assay kit (Rockford, Ill.).
(§4) For the study of MPH hydrolysis, the reaction was conducted in 1.5 mL eppendorf tubes with a final S9 concentration of 0.5 mg/mL at a total volume of 100 μL. […] Concentrations of the primary phase I MPH metabolite produced via hydrolysis, ritalinic acid (RA), was determined utilizing an established HPLC method described below.
as §1, with “Calif.) […]” for “Calif.)”

p.Asp260fs CES1 [4] = molecular target: T2, p.Asp260fs CES1 (Homo sapiens, UniProt P23141); assay: MPH hydrolysis to ritalinic acid by S9 of cells expressing p.Asp260fs CES1 (HPLC); format: biochemical; settings: S9 500 μg/ml, even at very high S9 concentration (2 mg/ml); 37° C., 2 h
T2 construct: a frameshift mutation that alters residues 260-299 and causes early truncation at a premature stop codon; expressed in transfected cells
T2 sequence (P23141 with tags, fused parts or gaps): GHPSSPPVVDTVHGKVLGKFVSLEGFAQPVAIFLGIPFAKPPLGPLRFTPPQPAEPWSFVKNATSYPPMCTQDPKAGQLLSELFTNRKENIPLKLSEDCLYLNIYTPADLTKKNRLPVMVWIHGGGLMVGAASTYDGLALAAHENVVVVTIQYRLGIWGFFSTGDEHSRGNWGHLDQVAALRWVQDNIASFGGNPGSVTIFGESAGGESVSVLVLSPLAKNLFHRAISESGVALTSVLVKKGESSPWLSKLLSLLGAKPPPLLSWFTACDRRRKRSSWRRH
Description: as §2, §3, §4
as §1, with “Calif.) […]” for “Calif.)”

[5] = Hemodynamic measurements after MPH administration in normal volunteers; format: in vivo, human; settings: after 0.3 mg/kg MPH
Description: The inventor considered the set of measures for each endpoint to be a multivariate vector, and assessed the Mahalanobis distance for subject's measurements. The Mahalanobis distance, a measure of distance from a central multivariate mean relative to the variance of the endpoints, is useful for identifying outliers via referral to the F distribution. This analysis assumes no explicit model of time effects on the vital signs, but recognizes the potential correlation between the repeated measures over time on each participant, and tests for simultaneous differences from the mean over the set of time points while controlling the Type I error rate. For each of the four endpoint vectors, the inventor tested the a priori hypothesis that the slow metabolizer's measurements were outliers by comparison to Wilks's critical values (α=0.0125, critical value: 13.8).^13 Because only testing outlier status for this single participant was tested, no Bonferroni corrections were made within participants; however, each test was performed at the Bonferroni-corrected α=0.0125 level to adjust for the four endpoints being tested. There were little differences in plasma MPH concentrations between the slow metabolizer and their study peers during the 0-1.5 h time frame (FIG. 6), which is likely due to a delay in tablet disintegration, dissolution and absorption. After this initial period MPH is subject to first-pass metabolism and hCES1 mediated stereoselective hydrolysis and the two concentration vs. time curves rapidly diverge from one another (FIGS. 2-3). Therefore, based on this finding and a visual examination of the data it was decided that a second analysis which excluded measurements taken during the 0-1.5 hr time points would be more appropriate.

p.Gly143Glu CES1 [6] = molecular target: T1, p.Gly143Glu CES1; assay: Oseltamivir phosphate hydrolysis by p.Gly143Glu hCES1 S9 (HPLC); format: biochemical; settings: compared to WT enzyme
p.Asp260fs CES1 [7] = molecular target: T2, p.Asp260fs CES1; assay: Oseltamivir phosphate hydrolysis by p.Asp260fs hCES1 S9 (HPLC); format: biochemical; settings: measured by conversion to OC
[8] = substrate: CCOC(=O)C1=C[C@@H](OC(CC)CC)[C@H](NC(C)=O)[C@@H](N)C1; assay: Oseltamivir phosphate hydrolysis to oseltamivir carboxylate by WT hCES1 S9 (HPLC); format: biochemical, human; settings: other: OP conversion to OC, 37° C., 10 min
[9] = substrate: COC(=O)[C@H](c1ccccc1)[C@H]1CCCCN1; assay: purified protein, by the assay type; settings: other: MPH hydrolysis, S9 0.5 mg/mL, 37° C., 2 hours, mean ± S.D. (n = 3)

Q: Which “ethylphenidate concentrations after co-administration of methylphenidate with ethanol” value ([1]; every subject except the slow metabolizer) does the source give for `CCOC(=O)C(c1ccccc1)C1CCCCN1` (stereo not shown) [ethylphenidate] here?
A: The value was “Detectable concentrations”.

Q: And the “ethylphenidate formation after methylphenidate and ethanol administered together” value ([1]; slow metabolizer)?
A: Its value is “unable to form ethylphenidate”.

Q: What does the source list for `COC(=O)C(c1ccccc1)C1CCCCN1` (racemic) [MPH, methylphenidate]?
A: stability in reaction buffer [2]: spontaneously hydrolyzed; catalytic activity towards MPH hydrolysis (p.Gly143Glu CES1 [3]): too low to be determined; catalytic activity towards MPH hydrolysis (p.Asp260fs CES1 [4]): too low to be determined; Diastolic Blood Pressure, Maximum Value, Mean (SD) ([5]; 19 study peers): 68 (8); Mean Arterial Pressure, Maximum Value, Mean (SD) ([5]; 19 study peers): 85 (8); Pulse, Maximum Value, Mean (SD) ([5]; 19 study peers): 74 (11); Systolic Blood Pressure, Maximum Value, Mean (SD) ([5]; 19 study peers): 120 (10); Diastolic Blood Pressure, Maximum Value, Outlier ([5]; slow metabolizer): 78; Mean Arterial Pressure, Maximum Value, Outlier ([5]; slow metabolizer): 97; Pulse, Maximum Value, Outlier ([5]; slow metabolizer): 93; Systolic Blood Pressure, Maximum Value, Outlier ([5]; slow metabolizer): 138; Cmax of slow metabolizer relative to the mean of the other subjects ([1]; single oral 0.3 mg/kg racemic MPH, plasma): approximately 7 fold

Q: With `CCOC(=O)C1=C[C@@H](OC(CC)CC)[C@H](NC(C)=O)[C@@H](N)C1` [OP, oseltamivir phosphate] as the molecule, how does the “enzymatic activity on oseltamivir hydrolysis” value (“enzymatic activity” below) (p.Gly143Glu CES1 [6]) read?
A: The value was “Profoundly decreased enzymatic activity”.

Q: And the “enzymatic activity” value (p.Asp260fs CES1 [7])?
A: The value was “did not result in any detectable hydrolysis”.

Q: And the “enzymatic activity” value (p.Asp260fs CES1 [7]; listed as oseltamivir)?
A: Its value is “No catalytic activity”.

B1: WT hCES1 (Homo sapiens) (protein)
chain: GHPSSPPVVDTVHGKVLGKFVSLEGFAQPVAIFLGIPFAKPPLGPLRFTPPQPAEPWSFVKNATSYPPMCTQDPKAGQLLSELFTNRKENIPLKLSEDCLYLNIYTPADLTKKNRLPVMVWIHGGGLMVGAASTYDGLALAAHENVVVVTIQYRLGIWGFFSTGDEHSRGNWGHLDQVAALRWVQDNIASFGGNPGSVTIFGESAGGESVSVLVLSPLAKNLFHRAISESGVALTSVLVKKGDVKPLAEQIAITAGCKTTTSAVMVHCLRQKTEEELLETTLKMKFLSLDLQGDPRESQPLLGTVIDGMLLLKTPEELQAERNFHTVPYMVGINKQEFGWLIPMQLMSYPLSEGQLDQKTAMSLLWKSYPLVCIAKELIPEATEKYLGGTDDTVKKKDLFLDLIADVMFGVPSVIVARNHRDAGAPTYMYEFQYRPSFSSDMKPKTVIGDHGDELFSVFGAPFLKEGASEEEIRLSKMVMKFWANFARNGNPNGEGLPHWPEYNQKEGYLQIGANTQAAQKLKDKEVAFWTNLFAKKAVEKPPQTEHIEL
notes: inserting a stop codon after CES1A1 gene to yield the constructs expressing CES1 without V5-His tag; expressed in transfected cells
Q: Which Km [8] does the source give for B1 here?
A: Its Km is 1381.6 µM.

Q: And the Vmax [8]?
A: Its Vmax is 145.3 nmole/min/mg protein.

B2: WT CES1 (Homo sapiens) (protein)
chain: GHPSSPPVVDTVHGKVLGKFVSLEGFAQPVAIFLGIPFAKPPLGPLRFTPPQPAEPWSFVKNATSYPPMCTQDPKAGQLLSELFTNRKENIPLKLSEDCLYLNIYTPADLTKKNRLPVMVWIHGGGLMVGAASTYDGLALAAHENVVVVTIQYRLGIWGFFSTGDEHSRGNWGHLDQVAALRWVQDNIASFGGNPGSVTIFGESAGGESVSVLVLSPLAKNLFHRAISESGVALTSVLVKKGDVKPLAEQIAITAGCKTTTSAVMVHCLRQKTEEELLETTLKMKFLSLDLQGDPRESQPLLGTVIDGMLLLKTPEELQAERNFHTVPYMVGINKQEFGWLIPMQLMSYPLSEGQLDQKTAMSLLWKSYPLVCIAKELIPEATEKYLGGTDDTVKKKDLFLDLIADVMFGVPSVIVARNHRDAGAPTYMYEFQYRPSFSSDMKPKTVIGDHGDELFSVFGAPFLKEGASEEEIRLSKMVMKFWANFARNGNPNGEGLPHWPEYNQKEGYLQIGANTQAAQKLKDKEVAFWTNLFAKKAVEKPPQTEHIEL
Q: Which results are given for B2?
A: Km [9]: 663.5 ± 210.0 µM; Vmax [9]: 177.2 ± 29.6 pmole/min/mg protein; Vmax/Km [9]: 0.27 μl/min/mg protein
